The record followed here is patent publication US6706664B1, “Benzoxazole compounds, process for the preparation thereof and herbicides” (UBE Industries, Ltd., priority 1999, dated 2004).

Holding throughout (set-up): key: 0: normal development; 1: Less damaged; 2: Slightly damaged; 3: Moderately damaged; 4: Severely damaged; 5: All killed
Experiment [1] relates to common lambsquartes. Briefly: Foliar spread test for upland field. The format is in vivo, Chenopodium album. The note with it: foliar spray 500 ppm, 3 weeks, rank vs non-treated. In a few lines:
(§1)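 Scoring used a 0–5 scale, where 0 meant normal development and 5 meant all plants killed, assessed 3 weeks after treatment. Plants had been grown about 2 weeks from seed in volcanic ash soil before a uniform spray at 500 ppm containing 0.5% surfactant.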

For another experiment, the system named is morning glory. The experiment in a line: Foliar spread test for upland field. The format is in vivo, Ipomoea spps. The note with it: foliar spray 500 ppm, 3 weeks, rank vs non-treated. The source says: (§2) (0: normal development, 1: Less damaged, 2: Slightly damaged, 3: Moderately damaged, 4: Severely damaged, 5: All killed).
(§3) Wagner pots, each having an area of 1/5000 are, were packed with volcanic ash soil and then each seed of corn, soybean, cotton, wheat, solgum, sugar beat, Large crabgrass, barnyardgrass, green foxtail, blackgrass, annual bluegrass, common lambsquartes, livid amaranth, velvetleaf and morning glory was planted, covered with soil and grown in a glass house at an average temperature of […] for about 2 weeks.
(§4) Each wettable powder of the desired compounds (I) shown in Table 1 prepared in accordance with Example 2 was diluted to 500 ppm with water containing a surfactant (0.5%) and then uniformly sprayed on the above respective plants.
(§5) After these plants were controlled in a glass house at an average temperature of 25° C. for 3 weeks, the herbicidal effects thereof were investigated.
(§6) The herbicidal effects were evaluated according to the evaluation method described in the above (1).

The test system of experiment [2] is Large crabgrass. Briefly: Soil treatment test for upland field. In kind it is in vivo, Digitaria adscendens. The conditions noted are these: 500 g/ha, glass house 25° C., 3 weeks. An outline of the steps:
(§7)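 Herbicidal effect graded on a 0–5 scale (0 normal development, 5 all killed) after 3 weeks in a glasshouse at about 25° C. Compound applied as a soil-surface spray at 500 g/ha right after sowing into Ube alluvial soil; spray water contained 0.05% surfactant.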

Experiment [3] relates to velvetleaf. The experiment in a line: Foliar spread test for upland field. In kind it is in vivo, Abutilon theophrasti. The conditions noted are these: foliar spray 500 ppm, 3 weeks, rank vs non-treated. In a few lines: as §1
For experiment [4], the system named is common lambsquartes. The experiment in a line: Soil treatment test for upland field. The note with it: 500 g/ha, glass house 25° C., 3 weeks. In kind it is in vivo, Chenopodium album. In a few lines:
as §7

The subject of experiment [5] is soybean. The experiment in a line: Soil treatment test for upland field. In kind it is in vivo. The conditions noted are these: 500 g/ha, glass house 25° C., 3 weeks. An outline of the steps:
as §7

Experiment [6] concerns cotton. Briefly: Soil treatment test for upland field. The format is in vivo. The note with it: 500 g/ha, glass house 25° C., 3 weeks. An outline of the steps: as §7
In experiment [7] the test system is solgum. Briefly: Soil treatment test for upland field. In kind it is in vivo. The conditions noted are these: 500 g/ha, glass house 25° C., 3 weeks. An outline of the steps:
as §7

The subject of experiment [8] is sugar beat. The experiment in a line: Soil treatment test for upland field. In kind it is in vivo. The note with it: 500 g/ha, glass house 25° C., 3 weeks. An outline of the steps:
as §7

The test system of experiment [9] is wheat. The experiment in a line: Soil treatment test for upland field. The format is in vivo. The note with it: 500 g/ha, glass house 25° C., 3 weeks. An outline of the steps:
as §7

The subject of experiment [10] is Large crabgrass. The experiment in a line: Foliar spread test for upland field. The conditions noted are these: foliar spray 500 ppm, 3 weeks, rank vs non-treated. In kind it is in vivo, Digitaria adscendens.
Source text: as §2, §3, §4, §5, §6

Experiment [11] relates to velvetleaf. The experiment in a line: Soil treatment test for upland field. In kind it is in vivo, Abutilon theophrasti. The conditions noted are these: 500 g/ha, glass house 25° C., 3 weeks. An outline of the steps: as §7
Experiment [12] concerns barnyardgrass. The experiment in a line: Soil treatment test for upland field. The note with it: 500 g/ha, glass house 25° C., 3 weeks. In kind it is in vivo, Echinochloa crusgalli. An outline of the steps: as §7
Experiment [13] concerns livid amaranth. The experiment in a line: Foliar spread test for upland field. In kind it is in vivo, Amaranthus lividus. The conditions noted are these: foliar spray 500 ppm, 3 weeks, rank vs non-treated. In a few lines: as §1
The test system of experiment [14] is blackgrass. The experiment in a line: Foliar spread test for upland field. In kind it is in vivo, Alopecurus aegualis. The conditions noted are these: foliar spray 500 ppm, 3 weeks, rank vs non-treated.
Source text: as §2, §3, §4, §5, §6

In experiment [15] the test system is livid amaranth. Briefly: Soil treatment test for upland field. The note with it: 500 g/ha, glass house 25° C., 3 weeks. The format is in vivo, Amaranthus lividus. In a few lines: as §7
Experiment [16] deals with annual bluegrass. Briefly: Soil treatment test for upland field. In kind it is in vivo, Poa annua. The conditions noted are these: 500 g/ha, glass house 25° C., 3 weeks. An outline of the steps:
as §7

For experiment [17], the system named is annual bluegrass. The experiment in a line: Foliar spread test for upland field. The format is in vivo, Poa annua. The conditions noted are these: foliar spray 500 ppm, 3 weeks, rank vs non-treated.
Source text: as §2, §3, §4, §5, §6

Experiment [18] has as its system blackgrass. The experiment in a line: Soil treatment test for upland field. In kind it is in vivo, Alopecurus aegualis. The conditions noted are these: 500 g/ha, glass house 25° C., 3 weeks. In a few lines: as §7
Experiment [19] deals with barnyardgrass. Briefly: Foliar spread test for upland field. The format is in vivo, Echinochloa crusgalli. The conditions noted are these: foliar spray 500 ppm, 3 weeks, rank vs non-treated.
Source text: as §2, §3, §4, §5, §6

The subject of experiment [20] is green foxtail. The experiment in a line: Soil treatment test for upland field. The conditions noted are these: 500 g/ha, glass house 25° C., 3 weeks. The format is in vivo, Setaria viridis. In a few lines:
as §7

Experiment [21] relates to green foxtail. Briefly: Foliar spread test for upland field. The format is in vivo, Setaria viridis. The note with it: foliar spray 500 ppm, 3 weeks, rank vs non-treated. An outline of the steps:
as §1

Experiment [22] concerns solgum. Briefly: Foliar spread test for upland field. The format is in vivo. The conditions noted are these: foliar spray 500 ppm, 3 weeks, rank vs non-treated. An outline of the steps:
(§8)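 Post-emergence foliar spray, 500 ppm (wettable powder in water + 0.5% surfactant), on ~2-week-old plants grown in volcanic ash soil; glasshouse, avg 25° C, 3 wk; visual damage score 0–5.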

Experiment [23] concerns sugar beat. The experiment in a line: Foliar spread test for upland field. The note with it: foliar spray 500 ppm, 3 weeks, rank vs non-treated. In kind it is in vivo. An outline of the steps: as §8
In experiment [24] the test system is soybean. Briefly: Foliar spread test for upland field. The format is in vivo. The note with it: foliar spray 500 ppm, 3 weeks, rank vs non-treated. An outline of the steps:
as §8

Experiment [25] deals with cotton. Briefly: Foliar spread test for upland field. In kind it is in vivo. The note with it: foliar spray 500 ppm, 3 weeks, rank vs non-treated. In a few lines: as §8
Experiment [26] deals with corn. Briefly: Foliar spread test for upland field. In kind it is in vivo. The conditions noted are these: foliar spray 500 ppm, 3 weeks, rank vs non-treated. In a few lines:
as §8

For experiment [27], the system named is wheat. Briefly: Foliar spread test for upland field. In kind it is in vivo. The conditions noted are these: foliar spray 500 ppm, 3 weeks, rank vs non-treated. In a few lines:
as §8

The subject of experiment [28] is corn. Briefly: Soil treatment test for upland field. The format is in vivo. The note with it: 500 g/ha, glass house 25° C., 3 weeks. In a few lines:
as §7

With `CCC(Oc1cccc(S(C)(=O)=O)c1)c1nc2cc(S(C)(=O)=O)ccc2o1` (centres unmarked) [Compound 513], the “Effects Common lambsquarters” value in the experiment on common lambsquartes [1] and in the experiment on common lambsquartes [4] was 5 throughout. Moreover, the “Effects Morning glory” value in the experiment with morning glory is given as 3. Further, the “Effects Large crabgrass” value in the experiment with Large crabgrass [2] and with Large crabgrass [10] was 5 each time. Also, the “Effects Velvetleaf” value with velvetleaf [3] and with velvetleaf [11] was 5 in each case. Besides, in the experiment with soybean [5], the “Effects Soybean” value was determined as 2. Also, the “Effects Cotton” value in the experiment with cotton [6] was determined as 2. The “Effects Solgum” value was found to be 2 in the experiment with solgum [7] and 3 with solgum [22]. For the same compound, the “Effects Sugar beat” value in the experiment on sugar beat [8] and in the experiment on sugar beat [23] was 5 throughout. Besides, in the experiment with wheat [9], the “Effects Wheat” value worked out at 2. Besides, the “Effects Barnyardgrass” value came out at 4 in the experiment on barnyardgrass [12] and 3 with barnyardgrass [19]. In addition, the “Effects Livid amaranth” value in the experiment with livid amaranth [13] and in the experiment on livid amaranth [15] was 5 in each case. For the same compound, the figures for the “Effects Blackgrass” value with blackgrass [14] and in the experiment with blackgrass [18] were 5 and 3, respectively. Further, the “Effects Annual bluegrass” value in the experiment on annual bluegrass [16] and in the experiment on annual bluegrass [17] was 5 each time. The “Effects Green foxtail” value in the experiment on green foxtail [20] and in the experiment with green foxtail [21] was 5 throughout.
For `CCC(Oc1ccc(F)c(C(F)(F)F)c1)c1nc2cc(NC(=O)C(F)(F)F)ccc2o1` (centres unmarked) [Compound 518], in the experiment on common lambsquartes [1], the “Effects Common lambsquarters” value is listed as 2. Besides, in the experiment with velvetleaf [3], the “Effects Velvetleaf” value is 3. Besides, in the experiment with Large crabgrass [10], the “Effects Large crabgrass” value is 2. The “Effects Livid amaranth” value in the experiment with livid amaranth [13] was 2. In addition, the “Effects Blackgrass” value with blackgrass [14] is recorded as 2. Moreover, the “Effects Green foxtail” value in the experiment with green foxtail [21] is recorded as 5. Also, the “Effects Soybean” value in the experiment on soybean [24] is given as 0. Further, the “Effects Cotton” value with cotton [25] amounted to 0. In addition, in the experiment with solgum [22], the “Effects Solgum” value is recorded as 0. Further, in the experiment on corn [26], the “Effects Corn” value turned out to be 0. Besides, the “Effects Sugar beat” value in the experiment on sugar beat [23] amounted to 5. Besides, in the experiment on wheat [27], the “Effects Wheat” value was 0.
Regarding `CC(Oc1cccc(C(F)(F)F)c1)c1nc2ccc(C(F)(F)F)cc2o1` (centres unmarked) [Compound 86], the “Effects Common lambsquarters” value with common lambsquartes [1] amounted to 2; in the experiment on common lambsquartes [4], 1. Moreover, the “Effects Morning glory” value with morning glory was found to be 3. Besides, the entries for the “Effects Large crabgrass” value in the experiment on Large crabgrass [2] and in the experiment on Large crabgrass [10] were 5 and 2, respectively. Moreover, the “Effects Velvetleaf” value with velvetleaf [3] is 1. For the same compound, the “Effects Soybean” value was found to be 0 in the experiment with soybean [5] and 2 in the experiment with soybean [24]. The “Effects Solgum” value with solgum [7] and with solgum [22] was 0 each time. Also, the results for the “Effects Corn” value in the experiment on corn [28] and in the experiment on corn [26] were 0 and 1, respectively. Besides, the “Effects Sugar beat” value in the experiment with sugar beat [8] and with sugar beat [23] was 2 throughout. The “Effects Wheat” value in the experiment on wheat [9] is 0; in the experiment with wheat [27] it was 1. For the same compound, the “Effects Barnyardgrass” value in the experiment with barnyardgrass [12] was 3. For the same compound, the “Effects Livid amaranth” value in the experiment with livid amaranth [13] was 3; in the experiment on livid amaranth [15], 5. In the experiment on blackgrass [14], the “Effects Blackgrass” value turned out to be 1. In addition, the “Effects Annual bluegrass” value in the experiment with annual bluegrass [16] and in the experiment on annual bluegrass [17] was 1 in each case. In addition, the results for the “Effects Green foxtail” value in the experiment on green foxtail [20] and in the experiment on green foxtail [21] were 4 and 2, respectively. For the same compound, the “Effects Cotton” value with cotton [25] was determined as 1.
Turning to `CCC(Oc1ccc(Cl)c(C(F)(F)F)c1)c1nc2cc(C#N)c(Cl)cc2o1` (centres unmarked) [Compound 534], the “Effects Common lambsquarters” value was 4 in the experiment with common lambsquartes [1] and 5 in the experiment on common lambsquartes [4]. Also, in the experiment on morning glory, the “Effects Morning glory” value amounted to 5. For the same compound, the “Effects Large crabgrass” value in the experiment on Large crabgrass [2] was 5; in the experiment with Large crabgrass [10], 2. For the same compound, the “Effects Velvetleaf” value with velvetleaf [3] and with velvetleaf [11] was 5 throughout. Also, the “Effects Soybean” value with soybean [5] is listed as 2. Besides, the results for the “Effects Solgum” value in the experiment with solgum [7] and with solgum [22] were 1 and 2, respectively. The “Effects Corn” value in the experiment on corn [28] and in the experiment with corn [26] was 2 throughout. The “Effects Sugar beat” value with sugar beat [8] and in the experiment on sugar beat [23] was 5 in each case. For the same compound, the “Effects Wheat” value came to 1 with wheat [9] and 2 in the experiment with wheat [27]. The “Effects Barnyardgrass” value with barnyardgrass [12] is 4; in the experiment on barnyardgrass [19], 2. The “Effects Livid amaranth” value with livid amaranth [13] and with livid amaranth [15] was 5 throughout. In addition, the “Effects Blackgrass” value in the experiment with blackgrass [14] was determined as 3; in the experiment with blackgrass [18], 4. The “Effects Annual bluegrass” value was 5 in the experiment with annual bluegrass [16] and 4 with annual bluegrass [17]. In the experiment on green foxtail [20], the “Effects Green foxtail” value is recorded as 5.
